Measurements published in article PMC6534212, “Synthesis and biological evaluation of 3–(4-aminophenyl)-coumarin derivatives as potential anti-Alzheimer’s disease agents” (Journal of Enzyme Inhibition and Medicinal Chemistry, 2019).

Tested on: zebrafish juveniles
Experiment: Model of exercise retardation, death and teratogenicity in zebrafish juveniles made of aluminium trichloride
Details: for Movement distance: 72 hpe, n=6; for Movement distance / Malformation rate / Mortality rate: mean ± SE; for Malformation rate / Mortality rate: after 72 h, n=90
Protocol: The 72 hpf zebrafish were placed in a petri dish, and the normal developing juveniles were selected under a microscope in a 12-well plate. The concentration of AlCl3 in the experiment was set to 0, 0.1, 0.5, 1.0, 5.0, 10.0, and 50.0 mg/L (prepared for aquaculture water), three replicate wells were set in each concentration group and then placed in a constant temperature incubator at 28 °C to continue the culture. The continuous drug solution was exposed for 3 days. The different concentrations of AlCl3 and the blank control group were placed in 48-well plates. Each well was juvenile fish developed to 72 h post-exposure (hpe) and added 0.5 mL of culture water and 8 juveniles were set in each experimental group. The well plate was placed in the dark box of the zebrafish behaviour analysis system. The fish was first adapted to 10 min at the beginning of the experiment. The trajectories of the juveniles in each group were collected using zeblab software for 10 min, recorded every 5 min, and exported by software. Then calculate the total distance of each group of zebrafish juveniles. The effects of different concentrations of aluminium trichloride on the death and teratogenicity of zebrafish juveniles were observed by microscopy.

`[Cl][Al]([Cl])[Cl]` [AlCl3, aluminium trichloride] was tested, and the Movement distance (AlCl3 0.1 mg/L) was 292.4 ± 6.7 cm, the Malformation rate (AlCl3 0.1 mg/L) was 0.00 ± 0.00% and the Mortality rate (AlCl3 0.1 mg/L) was 0.00 ± 0.00%. It also gave a Movement distance (AlCl3 0.5 mg/L) of 236.8 ± 9.4 cm, a Malformation rate (AlCl3 0.5 mg/L) of 0.00 ± 0.00% and a Mortality rate (AlCl3 0.5 mg/L) of 0.00 ± 0.00%. It also gave a Movement distance (AlCl3 1.0 mg/L) of 224.3 ± 10.8 cm, a Malformation rate (AlCl3 1.0 mg/L) of 1.11 ± 0.17% and a Mortality rate (AlCl3 1.0 mg/L) of 0.00 ± 0.00%. The Movement distance (AlCl3 5.0 mg/L) was 181.3 ± 9.6 cm, the Malformation rate (AlCl3 5.0 mg/L) was 2.22 ± 0.17% and the Mortality rate (AlCl3 5.0 mg/L) was 1.11 ± 0.17%. It also gave a Movement distance (AlCl3 10.0 mg/L) of 204.6 ± 12.8 cm, a Malformation rate (AlCl3 10.0 mg/L) of 16.67 ± 0.29 % and a Mortality rate (AlCl3 10.0 mg/L) of 11.11 ± 0.17 %. For the same compound, the “Death or malformation of zebrafish (in words)” value (AlCl3 50.0 mg/L, after 24 h administration) was “Most of the fish in the 50.0 mg/L group were dead or malformed”, the Malformation rate (AlCl3 50.0 mg/L) was 100.00 ± 0.00 % and the Mortality rate (AlCl3 50.0 mg/L) was 100.00 ± 0.00 %. The “Death of zebrafish (in words)” value (AlCl3 50.0 mg/L, at 48 h) was “all fish died”.
